Measurements published in ChEMBL document CHEMBL4715878 (J Med Chem, 2020).

Legend:
MCF7 [1] = assay: Antiproliferative activity against human MCF7 cells assessed as reduction in cell viability incubated for 72 hrs by WST8 assay; type: functional, cell-based; details: MCF7, 72 h
MDA-MB-231 = assay: Antiproliferative activity against human MDA-MB-231 cells assessed as reduction in cell viability incubated for 72 hrs by WST8 assay; type: functional, cell-based; details: MDA-MB-231, 72 h
AU565 = assay: Antiproliferative activity against human AU565 cells assessed as reduction in cell viability incubated for 72 hrs by WST8 assay; type: functional, cell-based; details: AU565, 72 h
BT-474 = assay: Antiproliferative activity against human BT474 cells assessed as reduction in cell viability incubated for 72 hrs by WST8 assay; type: functional, cell-based; details: BT-474, 72 h
[2] = molecular target: Receptor tyrosine-protein kinase erbB-2 (Homo sapiens, UniProt P04626); details: Sf9, human, 0.5 h
Chain of Receptor tyrosine-protein kinase erbB-2 (P04626 whole entry): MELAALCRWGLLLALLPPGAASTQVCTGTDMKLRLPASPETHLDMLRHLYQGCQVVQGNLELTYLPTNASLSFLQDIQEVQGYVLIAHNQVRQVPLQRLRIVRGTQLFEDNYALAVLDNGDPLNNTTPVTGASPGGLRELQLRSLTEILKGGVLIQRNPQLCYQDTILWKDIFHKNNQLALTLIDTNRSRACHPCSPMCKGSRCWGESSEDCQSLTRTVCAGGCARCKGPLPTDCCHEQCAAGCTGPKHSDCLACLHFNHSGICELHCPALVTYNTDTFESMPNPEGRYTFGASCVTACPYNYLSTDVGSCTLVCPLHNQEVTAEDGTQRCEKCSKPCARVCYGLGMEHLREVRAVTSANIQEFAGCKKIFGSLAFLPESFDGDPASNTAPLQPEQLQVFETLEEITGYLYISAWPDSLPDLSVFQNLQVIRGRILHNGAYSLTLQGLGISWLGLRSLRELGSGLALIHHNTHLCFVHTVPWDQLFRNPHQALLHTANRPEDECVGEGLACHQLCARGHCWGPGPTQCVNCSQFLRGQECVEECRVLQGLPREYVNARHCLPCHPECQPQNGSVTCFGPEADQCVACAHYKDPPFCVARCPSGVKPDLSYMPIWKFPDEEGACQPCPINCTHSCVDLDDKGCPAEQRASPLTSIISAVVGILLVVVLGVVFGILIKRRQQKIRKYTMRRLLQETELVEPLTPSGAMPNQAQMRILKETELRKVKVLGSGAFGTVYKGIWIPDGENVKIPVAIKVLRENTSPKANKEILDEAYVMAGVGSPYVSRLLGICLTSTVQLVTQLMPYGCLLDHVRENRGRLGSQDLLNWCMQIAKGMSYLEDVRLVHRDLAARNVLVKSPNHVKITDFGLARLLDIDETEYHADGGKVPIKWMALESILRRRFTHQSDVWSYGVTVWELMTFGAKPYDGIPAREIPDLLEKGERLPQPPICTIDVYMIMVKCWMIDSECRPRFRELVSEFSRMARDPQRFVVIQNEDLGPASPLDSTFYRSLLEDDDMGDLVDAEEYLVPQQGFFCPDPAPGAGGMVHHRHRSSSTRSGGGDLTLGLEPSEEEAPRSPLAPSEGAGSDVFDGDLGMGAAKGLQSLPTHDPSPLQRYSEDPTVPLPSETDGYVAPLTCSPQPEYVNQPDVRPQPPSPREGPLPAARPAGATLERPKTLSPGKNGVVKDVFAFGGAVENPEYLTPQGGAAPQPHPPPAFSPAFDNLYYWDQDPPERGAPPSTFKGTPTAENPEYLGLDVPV

[3] = molecular target: Receptor tyrosine-protein kinase erbB-4 (Homo sapiens, UniProt Q15303); assay: Effect on human recombinant N-terminal GST-tagged HER4 (682 to 993) expressed in baculovirus infected Sf9 insect cells in presence of substrate and [gamma-32ATP] at 10 uM incubated for 30 mins by scintillation counting based radiometry assay relative to control; details: 0.5 h, read-out: Activity
Chain of Receptor tyrosine-protein kinase erbB-4 (Q15303 whole entry): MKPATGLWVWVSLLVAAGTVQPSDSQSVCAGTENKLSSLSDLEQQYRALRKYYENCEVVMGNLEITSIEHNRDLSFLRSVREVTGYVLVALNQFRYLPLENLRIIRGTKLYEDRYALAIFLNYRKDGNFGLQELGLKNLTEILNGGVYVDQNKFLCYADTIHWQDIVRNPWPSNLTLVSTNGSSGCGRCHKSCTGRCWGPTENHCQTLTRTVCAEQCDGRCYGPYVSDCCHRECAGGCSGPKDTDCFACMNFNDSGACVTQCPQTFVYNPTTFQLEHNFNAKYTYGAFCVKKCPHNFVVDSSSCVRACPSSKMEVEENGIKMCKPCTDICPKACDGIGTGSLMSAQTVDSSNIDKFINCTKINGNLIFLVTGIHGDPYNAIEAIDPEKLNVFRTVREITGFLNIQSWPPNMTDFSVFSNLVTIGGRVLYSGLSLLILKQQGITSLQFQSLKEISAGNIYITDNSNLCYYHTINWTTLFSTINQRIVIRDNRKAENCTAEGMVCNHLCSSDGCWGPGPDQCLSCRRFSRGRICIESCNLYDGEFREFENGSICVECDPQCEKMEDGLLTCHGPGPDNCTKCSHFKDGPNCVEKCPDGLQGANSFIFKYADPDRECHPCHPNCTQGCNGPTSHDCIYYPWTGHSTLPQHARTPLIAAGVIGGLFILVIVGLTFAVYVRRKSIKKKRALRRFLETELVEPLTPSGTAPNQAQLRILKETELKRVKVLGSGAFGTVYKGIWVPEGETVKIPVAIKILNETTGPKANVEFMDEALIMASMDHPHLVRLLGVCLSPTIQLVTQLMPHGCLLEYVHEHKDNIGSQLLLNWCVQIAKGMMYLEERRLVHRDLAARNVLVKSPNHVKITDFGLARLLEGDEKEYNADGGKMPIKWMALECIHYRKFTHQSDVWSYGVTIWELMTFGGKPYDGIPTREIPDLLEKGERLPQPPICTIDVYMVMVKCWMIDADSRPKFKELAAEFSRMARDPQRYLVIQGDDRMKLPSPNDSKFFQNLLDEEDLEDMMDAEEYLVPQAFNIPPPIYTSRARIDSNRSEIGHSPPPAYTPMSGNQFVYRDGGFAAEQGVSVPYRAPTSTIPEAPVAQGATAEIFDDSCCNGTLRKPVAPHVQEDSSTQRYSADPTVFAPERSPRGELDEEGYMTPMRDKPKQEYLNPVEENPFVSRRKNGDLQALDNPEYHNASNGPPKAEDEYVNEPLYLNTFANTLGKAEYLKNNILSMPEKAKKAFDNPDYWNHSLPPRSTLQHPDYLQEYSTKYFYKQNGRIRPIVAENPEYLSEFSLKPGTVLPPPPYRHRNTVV

[4] = molecular target: Platelet-derived growth factor receptor alpha (Homo sapiens, UniProt P16234); assay: Effect on human recombinant N-terminal GST-tagged PDGFRalpha (550 to end residues) expressed in baculovirus infected Sf9 insect cells in presence of substrate and [gamma-32ATP] at 10 uM incubated for 30 mins by scintillation counting based radiometry assay relative to control; details: 0.5 h, read-out: Activity
Chain of Platelet-derived growth factor receptor alpha (P16234 whole entry): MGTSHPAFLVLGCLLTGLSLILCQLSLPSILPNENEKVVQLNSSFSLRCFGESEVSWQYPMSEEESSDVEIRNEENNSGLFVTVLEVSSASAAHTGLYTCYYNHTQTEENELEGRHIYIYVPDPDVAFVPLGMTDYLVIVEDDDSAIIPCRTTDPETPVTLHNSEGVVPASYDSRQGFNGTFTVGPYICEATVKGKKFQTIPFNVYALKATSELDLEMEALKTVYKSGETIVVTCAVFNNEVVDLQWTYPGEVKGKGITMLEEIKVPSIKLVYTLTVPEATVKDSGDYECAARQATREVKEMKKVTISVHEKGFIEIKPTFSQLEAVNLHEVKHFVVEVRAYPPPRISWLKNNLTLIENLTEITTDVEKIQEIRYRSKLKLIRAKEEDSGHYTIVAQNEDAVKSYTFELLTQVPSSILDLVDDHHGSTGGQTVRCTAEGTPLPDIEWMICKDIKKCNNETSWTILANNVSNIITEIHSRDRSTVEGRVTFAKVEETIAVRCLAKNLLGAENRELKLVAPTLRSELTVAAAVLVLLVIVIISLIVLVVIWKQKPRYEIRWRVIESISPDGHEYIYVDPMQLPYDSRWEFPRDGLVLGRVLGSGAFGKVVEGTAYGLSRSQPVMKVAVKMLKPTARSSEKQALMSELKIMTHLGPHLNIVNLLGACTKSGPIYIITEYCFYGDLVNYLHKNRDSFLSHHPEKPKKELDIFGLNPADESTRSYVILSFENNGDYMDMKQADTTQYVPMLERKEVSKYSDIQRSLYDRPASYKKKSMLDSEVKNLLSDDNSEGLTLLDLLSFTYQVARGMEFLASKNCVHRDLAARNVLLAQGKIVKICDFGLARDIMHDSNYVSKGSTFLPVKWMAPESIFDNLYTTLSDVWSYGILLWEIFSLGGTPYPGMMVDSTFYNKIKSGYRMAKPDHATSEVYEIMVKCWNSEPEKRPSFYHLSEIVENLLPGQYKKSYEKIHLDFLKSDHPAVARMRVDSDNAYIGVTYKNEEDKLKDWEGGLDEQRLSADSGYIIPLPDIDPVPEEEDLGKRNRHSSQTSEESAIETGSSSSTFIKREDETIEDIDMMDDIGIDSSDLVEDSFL

MCF7 [5] = assay: Potency index, ratio of lapatinib IC50 to test compound IC50 for antiproliferative activity against human MCF7 cells; type: functional
MDA-MB-468 [6] = assay: Antiproliferative activity against human MDA-MB-468 cells assessed as cell growth inhibition after 48 hrs by SRB assay; type: functional
[7] = Antiproliferative activity against human BC assessed as cell growth inhibition at 10 uM after 48 hrs by SRB assay relative to control; type: functional; details: read-out: GI
[8] = Antiproliferative activity against human BC assessed as lethality at 10 uM after 48 hrs by SRB assay relative to control; type: functional
[9] = system: Panel NCI-60 (60 carcinoma cell lines); assay: Antiproliferative activity against human NCI60 cells assessed as lethality at 10 uM after 48 hrs by SRB assay relative to control; type: functional
[10] = system: Panel NCI-60 (60 carcinoma cell lines); assay: Antiproliferative activity against human NCI60 cells assessed as mean cell growth at 10 uM after 48 hrs by SRB assay relative to control; type: functional
MCF7 [11] = assay: Antiproliferative activity against human MCF7 cells assessed as lethality at 10 uM after 48 hrs by SRB assay relative to control; type: functional
MDA-MB-468 [12] = assay: Antiproliferative activity against human MDA-MB-468 cells assessed as lethality at 10 uM after 48 hrs by SRB assay relative to control; type: functional
MDA-MB-468 [13] = assay: Antiproliferative activity against human MDA-MB-468 cells assessed as cell growth inhibition at 10 uM after 48 hrs by SRB assay relative to control; type: functional; details: read-out: GI
[14] = Antiproliferative activity against human MDA-MB-231 cells assessed as lethality at 10 uM after 48 hrs by SRB assay relative to control; type: functional, MDA-MB-23
[15] = molecular target: Epidermal growth factor receptor (Homo sapiens, UniProt P00533); details: 0.5 h
Chain of Epidermal growth factor receptor (P00533 whole entry): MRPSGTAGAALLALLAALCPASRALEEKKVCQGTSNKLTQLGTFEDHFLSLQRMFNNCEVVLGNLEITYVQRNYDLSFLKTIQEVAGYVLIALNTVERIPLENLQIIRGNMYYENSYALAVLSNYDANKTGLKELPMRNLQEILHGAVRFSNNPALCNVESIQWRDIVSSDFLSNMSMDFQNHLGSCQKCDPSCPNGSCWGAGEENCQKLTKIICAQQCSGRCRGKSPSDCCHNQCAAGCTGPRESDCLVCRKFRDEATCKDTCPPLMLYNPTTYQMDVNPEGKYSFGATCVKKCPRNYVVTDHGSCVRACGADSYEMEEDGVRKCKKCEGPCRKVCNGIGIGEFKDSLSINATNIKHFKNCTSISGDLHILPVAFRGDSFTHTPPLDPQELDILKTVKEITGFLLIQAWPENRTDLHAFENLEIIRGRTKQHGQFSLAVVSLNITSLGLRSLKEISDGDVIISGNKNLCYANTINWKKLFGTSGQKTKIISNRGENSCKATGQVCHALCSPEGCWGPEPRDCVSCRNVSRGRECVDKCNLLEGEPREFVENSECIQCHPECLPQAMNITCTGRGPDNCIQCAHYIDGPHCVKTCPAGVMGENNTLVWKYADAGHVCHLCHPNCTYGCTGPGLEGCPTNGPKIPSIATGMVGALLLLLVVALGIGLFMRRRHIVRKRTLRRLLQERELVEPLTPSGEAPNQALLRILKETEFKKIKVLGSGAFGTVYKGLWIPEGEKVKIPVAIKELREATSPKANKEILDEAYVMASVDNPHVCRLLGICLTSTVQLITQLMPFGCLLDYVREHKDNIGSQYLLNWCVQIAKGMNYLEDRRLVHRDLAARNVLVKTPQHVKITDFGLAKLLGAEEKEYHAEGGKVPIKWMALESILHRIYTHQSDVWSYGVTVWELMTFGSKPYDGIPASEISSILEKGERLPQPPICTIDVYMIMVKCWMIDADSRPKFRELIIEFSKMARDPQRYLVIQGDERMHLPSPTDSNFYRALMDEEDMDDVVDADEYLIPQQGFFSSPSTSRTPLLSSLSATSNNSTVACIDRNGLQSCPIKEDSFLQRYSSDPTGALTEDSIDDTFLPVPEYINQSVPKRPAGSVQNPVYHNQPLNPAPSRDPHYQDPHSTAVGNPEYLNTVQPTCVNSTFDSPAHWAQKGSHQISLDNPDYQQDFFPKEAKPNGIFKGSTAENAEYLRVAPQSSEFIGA
Description: Effect on human EGFR in presence of substrate and [gamma-32ATP] at 10 uM incubated for 30 mins by scintillation counting based radiometry assay relative to control

| Structure (SMILES) | IC50 (MCF7 [1]) [µM] | IC50 (MDA-MB-231) [µM] | IC50 (AU565) [µM] | IC50 (BT-474) [µM] | activity at 10 µM [2] [%] | activity at 10 µM [3] [%] | activity at 10 µM [4] [%] | Ratio IC50 (MCF7 [5]) | GI50 (MDA-MB-468 [6]) [µM] | inhibition of growth at 10 µM [7] [%] | Activity [8] | Activity [9] [%] | Activity [10] [%] | Activity (MCF7 [11]) [%] | Activity (MDA-MB-468 [12]) [%] | inhibition of growth at 10 µM (MDA-MB-468 [13]) [%] | Activity [14] [%] | activity at 10 µM [15] [%] |
| --- | --- | --- | --- | --- | --- | --- | --- | --- | --- | --- | --- | --- | --- | --- | --- | --- | --- | --- |
| Fc1cccc(Oc2ccc(Nc3ncnc4ccc(OCCCN5CCOCC5)cc34)cc2Cl)c1 | 8.33 | 10.2 | 0.311 | 0.283 | – | – | – | – | – | – | – | – | – | – | – | – | – | – |
| CS(=O)(=O)CCNCc1ccc(-c2ccc3ncnc(Nc4ccc(OCc5cccc(F)c5)c(Cl)c4)c3c2)o1 [LAPATINIB] | 6.3 | 10.4 | 0.064 | 0.064 | -52 | -99 | 56 | – | – | – | – | – | – | – | – | – | – | – |
| CCN(CC)CC(=O)Nc1ccc2ncnc(Nc3ccc(Oc4cccc(F)c4)c(Cl)c3)c2c1 | 5.68 | 3.92 | 0.684 | 0.532 | – | – | – | – | – | – | – | – | – | – | – | – | – | – |
| CN1CCN(Cc2ccc(C(=O)Nc3ccc4ncnc(Nc5ccc(Oc6cccc(F)c6)c(Cl)c5)c4c3)cc2)CC1 | 1.62 | 1.9 | 0.767 | 0.506 | – | – | – | <=20 | – | – | – | – | – | – | – | – | – | – |
| CN1CCN(CC(=O)Nc2ccc3ncnc(Nc4ccc(Oc5cccc(F)c5)c(Cl)c4)c3c2)CC1 | 5.99 | 5.45 | 0.491 | 0.221 | – | – | – | – | – | – | – | – | – | – | – | – | – | – |
| Cc1cccc(Oc2ccc(Nc3ncnc4ccc(NC(=O)CN(C)C)cc34)cc2Cl)c1 | 2.7 | 4.51 | 0.154 | 0.134 | – | – | – | – | 0.2 | – | – | – | – | – | – | – | – | – |
| FC(F)(F)c1cccc(Oc2ccc(Nc3ncnc4ccc(OCCCN5CCOCC5)cc34)cc2Cl)c1 | 5.53 | 6.73 | 0.348 | 0.246 | – | – | – | – | 0.5 | – | – | – | – | – | – | – | – | – |
| CN1CCN(CC(=O)Nc2ccc3ncnc(Nc4ccc(Oc5cccc(C(F)(F)F)c5)c(Cl)c4)c3c2)CC1 | 2.07 | 2.56 | 0.441 | 0.369 | – | – | – | – | – | ≤ 78.7 | <=78.7% | 1.3 | 11.85 | 11.7 | 11.7 | 18.8 | 11.7 | – |
| Cc1cccc(Oc2ccc(Nc3ncnc4ccc(NC(=O)CN5CCOCC5)cc34)cc2Cl)c1 | 9.64 | 13.8 | 0.152 | 0.091 | – | – | – | – | – | – | – | – | – | – | – | – | – | – |
| CCN(CC)CC(=O)Nc1ccc2ncnc(Nc3ccc(Oc4cccc(C)c4)c(Cl)c3)c2c1 | 2.68 | 2.83 | 0.219 | 0.265 | – | – | – | – | – | – | – | – | – | – | – | – | – | – |
| CN(C)Cc1ccc(C(=O)Nc2ccc3ncnc(Nc4ccc(Oc5cccc(F)c5)c(Cl)c4)c3c2)cc1 | 2.64 | 5 | 0.225 | 0.339 | – | – | – | – | – | ≤ 78.7 | <=78.7% | 1.3 | 11.85 | 11.7 | 11.7 | 18.8 | 11.7 | – |
| CN(C)CC(=O)Nc1ccc2ncnc(Nc3ccc(Oc4cccc(C(F)(F)F)c4)c(Cl)c3)c2c1 | 5.1 | 2.66 | 0.408 | 0.478 | – | – | – | – | – | – | – | – | – | – | – | – | – | – |
| OCCNCCCOc1ccc2ncnc(Nc3ccc(Oc4cccc(C(F)(F)F)c4)c(Cl)c3)c2c1 | 1.51 | 1.95 | 0.456 | 0.262 | – | – | – | <=20 | 0.6 | ≤ 78.7 | <=78.7% | 1.3 | 11.85 | 18 | 18 | 18.8 | 18 | – |
| CNC(=O)c1cc(Oc2ccc(NC(=O)Nc3ccc(Cl)c(C(F)(F)F)c3)cc2)ccn1 [SORAFENIB] | – | – | – | – | – | -60 | -55 | – | – | – | – | – | – | – | – | – | – | – |
| O=C(Nc1ccc2ncnc(Nc3ccc(Oc4cccc(F)c4)c(Cl)c3)c2c1)c1ccc(CN2CCOCC2)cc1 | 6.22 | 11.5 | 0.923 | 0.54 | – | – | – | – | – | – | – | – | – | – | – | – | – | – |
| Fc1cccc(COc2ccc(Nc3ncnc4ccc(OCCCN5CCOCC5)cc34)cc2Cl)c1 | 6.19 | 7.32 | 0.149 | 0.081 | – | – | – | – | – | – | – | – | – | – | – | – | – | – |
| O=C(CN1CCOCC1)Nc1ccc2ncnc(Nc3ccc(OCc4cccc(F)c4)c(Cl)c3)c2c1 | 7.97 | 11.6 | 0.13 | 0.117 | -92 | -97 | 55 | – | – | – | – | – | – | – | – | – | – | -81 |
| CN1CCN(CCCOc2ccc3ncnc(Nc4ccc(Oc5cccc(F)c5)c(Cl)c4)c3c2)CC1 | 0.913 | 1.7 | 0.419 | 0.221 | – | – | – | <=20 | – | ≤ 78.7 | <=78.7% | 1.3 | 11.85 | – | – | 18.8 | – | – |
| Cc1cccc(Oc2ccc(Nc3ncnc4ccc(NC(=O)CNCCO)cc34)cc2Cl)c1 | 10.8 | 7.83 | 0.304 | 0.132 | -93 | -99 | 86 | – | – | – | – | – | – | – | – | – | – | -78 |
| CCN(CC)CCCOc1ccc2ncnc(Nc3ccc(Oc4cccc(C(F)(F)F)c4)c(Cl)c3)c2c1 | 1.6 | 1.37 | 0.289 | 0.213 | – | – | – | <=20 | 0.9 | ≤ 78.7 | <=78.7% | 1.3 | 11.85 | 11.7 | 11.7 | 18.8 | 11.7 | – |
| O=C(CN1CCOCC1)Nc1ccc2ncnc(Nc3ccc(Oc4cccc(F)c4)c(Cl)c3)c2c1 | 18.1 | 30.2 | 0.545 | 0.373 | -92 | -97 | 18 | – | – | – | – | – | – | – | – | – | – | -67 |
| O=C(CN1CCOCC1)Nc1ccc2ncnc(Nc3ccc(Oc4cccc(C(F)(F)F)c4)c(Cl)c3)c2c1 | 11.2 | 8.85 | 0.364 | 0.298 | -91 | -94 | 82 | – | – | – | – | – | – | – | – | – | – | -71 |
